From BigSolDB 2.1

COC(=O)Nc1nc2ccc(Sc3ccccc3)cc2[nH]1
solubility (mole fraction)
Conditions | 283.15 K | 288.15 K | 293.15 K | 298.15 K | 303.15 K | 308.15 K | 313.15 K | 318.15 K | 323.15 K | 328.15 K
in DMF | 0.0397 | 0.0559 | 0.0731 | 0.0997 | 0.134 | 0.175 | 0.227 | 0.291 | 0.374 | 0.47
in ethanol | 0.000165 | 0.000219 | 0.000291 | 0.000378 | 0.000478 | 0.000598 | 0.000734 | 0.000918 | 0.00112 | 0.00137
in ethylene glycol | 0.000127 | 0.000171 | 0.000232 | 0.000305 | 0.0004 | 0.000513 | 0.000648 | 0.000812 | 0.00101 | 0.00126
in water | 3.69e-06 | 4.51e-06 | 5.71e-06 | 7.25e-06 | 9.03e-06 | 1.12e-05 | 1.38e-05 | 1.7e-05 | 2.07e-05 | 2.51e-05
